Experimental data: PubChem BioAssay (NCI)
“And” between values parts separate entries of the source, which are not always exact repeats. Equal values may be shown once.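 Interpolation was linear, between the two tested concentrations surrounding the appropriate level; five concentrations were tested over 48 hours in 96-well plates. Here, GI50 denotes the concentration required for 50% inhibition of growth. The concentration for full growth arrest is given as TGI.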

Legend:
Assay in all cases: inhibition of tumour cell growth, NCI panel, 48 h
SN12C renal = system: SN12C renal
COLO 205 colon = system: COLO 205 colon
DMS 273 small cell lung = system: DMS 273 small cell lung
NCI-H460 lung = system: NCI-H460 lung
SF-268 CNS = system: SF-268 CNS
M19-MEL melanoma = system: M19-MEL melanoma
OVCAR-5 ovarian = system: OVCAR-5 ovarian
HOP-92 NSCLC = system: HOP-92 NSCLC
MALME-3M melanoma = system: MALME-3M melanoma
T-47D breast = system: T-47D breast

SMILES	TGI (SN12C renal)	TGI (COLO 205 colon)	TGI (DMS 273 small cell lung)	TGI (NCI-H460 lung)	TGI (SF-268 CNS)	TGI (M19-MEL melanoma)	TGI (OVCAR-5 ovarian)	TGI (HOP-92 NSCLC)	TGI (MALME-3M melanoma)	GI50 (SN12C renal)	GI50 (COLO 205 colon)	GI50 (NCI-H460 lung)	GI50 (SF-268 CNS)	GI50 (T-47D breast)	TGI (T-47D breast)	GI50 (OVCAR-5 ovarian)	GI50 (HOP-92 NSCLC)	GI50 (MALME-3M melanoma)
Cn1c(N)nc(=O)c2c1N(C1OC(CO)C(O)C1O)CN2Cc1ccccc1 (centres undefined)	> 100 µM	> 100 µM	> 100 µM	> 100 µM	> 100 µM	> 100 µM	> 100 µM	> 100 µM	> 100 µM	–	–	–	–	–	–	–	–	–
CC1=C(/C=C/C(C)=C/C=C/C(C)=C/C(=O)O)C(C)(C)CCC1	72.1 µM	63.6 µM	> 100 µM	70.5 µM	> 75.1 µM	> 100 µM	> 85.4 µM	> 83.4 µM	> 75.6 µM	–	–	–	–	–	–	–	–	–
Cc1[nH]c(=O)[nH]c1C(=O)c1ccc(-n2ccnc2)cc1	> 100 µM	–	> 100 µM	> 100 µM	> 100 µM	> 100 µM	> 100 µM	–	> 100 µM	–	–	–	–	–	–	–	–	–
CCc1cc(CCC(=O)Nc2ccccc2[N+](=O)[O-])[nH]c(=S)n1	–	> 100 µM	–	> 100 µM	> 100 µM	> 100 µM	> 100 µM	> 100 µM	–	–	–	–	–	–	–	–	–	–
N#CC1(C#N)C2C=CC(c3coc4cccc2c34)C1(C#N)C#N (centres undefined)	23.2 µM	4.4 µM	31.6 µM	37.4 µM	20.3 µM	8.86 µM	30.8 µM	35 µM	18.8 µM	–	–	–	–	–	–	–	–	–
CCOC(=O)c1cnc2c(ccc3ncccc32)c1NCCCN(CC)CC	–	> 100 µM	> 100 µM	> 100 µM	> 100 µM	> 100 µM	> 100 µM	> 100 µM	> 100 µM	–	–	–	–	–	–	–	–	–
CCCCCCCCCC(=O)OCC1OC(n2cc(F)c(=O)[nH]c2=O)C(NC(=O)OCc2ccccc2)C(OC(=O)CCCCCCCCC)C1O (centres undefined)	29.6 µM	> 100 µM	> 100 µM	–	> 100 µM	> 100 µM	–	36.3 µM	90.6 µM	–	–	–	–	–	–	–	–	–
CC1=C(O)/C(=C/C(C)CCC/C(C)=C/C=C/C(C)CCCc2ccoc2)OC1=O (centres undefined)	> 100 µM	> 100 µM	> 100 µM	> 100 µM	97.9 µM	> 100 µM	69.3 µM	–	49.4 µM	–	–	–	–	–	–	–	–	–
CSc1snc2sc3c(Cl)nnnc3c12	28.7 µM	24 µM	23.9 µM	32.8 µM	33.2 µM	24.1 µM	31 µM	–	29.3 µM	–	–	–	–	–	–	–	–	–
Cc1cn2c(/C=N/N=C(N)N)c(-c3ccccn3)nc2s1	29.5 µM	42 µM	–	> 75.6 µM	45.4 µM	–	46 µM	16.9 µM	44.4 µM	14.7 µM	11.3 µM	14.9 µM	8.62 µM	7.59 µM	18.2 µM	22.3 µM	7.35 µM	21.8 µM
CN(Cc1cc(Br)cc(Br)c1O)Cc1c(O)ccc2ccccc12	32 µM	36.7 µM	–	54.2 µM	74.5 µM	–	37.1 µM	39.4 µM	42.9 µM	–	–	–	–	–	43.8 µM	–	–	–
CC(=[N-])N1CCC[C@@H](Nc2c3ccccc3nc3ccccc23)C1.[Cl][Pt].[NH-]CCC[NH-]	–	2.69 µM	–	> 40.8 µM	> 100 µM	–	36.4 µM	8.36 µM	4.51 µM	0.0214 µM	0.431 µM	0.0277 µM	3.68 µM	0.0368 µM	> 100 µM	2.89 µM	2.21 µM	1.49 µM
CC1(N)CCN(c2cnc(-c3cccc(Cl)c3Cl)c(N)n2)CC1	> 100 µM	35.5 µM	–	> 100 µM	> 100 µM	–	> 100 µM	5.44 µM	32.1 µM	15.6 µM	16.9 µM	32.7 µM	22.7 µM	17.3 µM	68.4 µM	27.7 µM	0.553 µM	16.4 µM
COc1cc2nccc(Oc3ccc(NC(=O)Nc4cc(C)on4)c(Cl)c3)c2cc1OC	> 100 µM	32.7 µM and > 10 µM	–	> 70.4 µM	> 55.3 µM	–	42.9 µM and > 10 µM	6.27 µM and 3.44 µM	8.17 µM and > 10 µM	2.13 µM and 2.56 µM	3.22 µM and 3.04 µM	3.41 µM and 4.31 µM	2.58 µM and 3.09 µM	2.98 µM and 3.35 µM	23.2 µM and > 10 µM	4.15 µM and 4.08 µM	2.58 µM and 0.911 µM	1.92 µM and 6.17 µM
Oc1c(Cl)cc(Cl)cc1C(c1cc(Cl)cc(Cl)c1O)C(Cl)(Cl)Cl	13.7 µM	4.76 µM	–	9.38 µM	13.8 µM	–	14.5 µM	5.94 µM	7.2 µM	1.78 µM	1.89 µM	2.01 µM	2.34 µM	2.39 µM	11.3 µM	3.27 µM	1.52 µM	2.8 µM
CN(CC(=O)Nc1nc2ccccc2[nH]1)S(=O)(=O)c1ccc(Cl)cc1	> 100 µM	> 100 µM	–	> 100 µM	> 100 µM	–	> 100 µM	> 100 µM	> 100 µM	> 100 µM	> 100 µM	> 100 µM	43.2 µM	> 100 µM	> 100 µM	> 100 µM	> 100 µM	> 100 µM
OCCNc1nc(Nc2ccc(Cl)c(Cl)c2)nc2ccccc12	20.7 µM	3.07 µM	–	16.5 µM	20.8 µM	–	6.22 µM	7.51 µM	17.5 µM	5.37 µM	1.6 µM	3.71 µM	6.78 µM	9.65 µM	25.9 µM	2.21 µM	2.05 µM	4.97 µM
CC([C@H]1CCC2C3CCC4C[C@@H](N)CC[C@]4(C)C3CC[C@@]21C)N(C)C (some centres undefined)	25.7 µM	4.37 µM	–	6.04 µM	11.7 µM	–	41.4 µM	25.9 µM	5.11 µM	8.17 µM	1.89 µM	2.4 µM	3.34 µM	3.23 µM	17.9 µM	17.5 µM	4.53 µM	1.88 µM
CC(=O)O[C@@]1(C)[C@@H](C)C(=O)O[C@@H]2CCN3CC=C(COC(=O)[C@]1(C)O)[C@H]23	–	> 100 µM	> 100 µM	> 100 µM	> 100 µM	> 100 µM	> 100 µM	> 100 µM	> 100 µM	–	–	–	–	–	–	–	–	–
